Results published in US12077503B2, “Substituted cyclic amides and their use as herbicides” (FMC CORPORATION, priority 2015, dated 2024).

Tests used:
Assay type in all cases: in vivo
[1] = system: barnyardgrass (Echinochloa crus-galli); test: Test A preemergence; details: Echinochloa crus-galli, pre-emergence, 240 h
In short: (§1)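 Treatment is preemergence as a directed soil spray after planting, or postemergence at the one- to two-leaf stage, with test chemical in a non-phytotoxic solvent mixture plus surfactant. Plants stay in the greenhouse about 10 d before visual injury scoring on a 0 to 100 scale versus untreated controls.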

[2] = system: giant foxtail (Setaria faberii); test: Test A preemergence; details: Setaria faberi, pre-emergence, 240 h
In short: as §1

[3] = system: pigweed (Amaranthus retroflexus); test: Test A preemergence; details: Amaranthus retroflexus, pre-emergence, 240 h
Kochia (Kochia scoparia) [4] = test: Test A preemergence; details: Bassia scoparia, pre-emergence, 240 h
In short: as §1

[5] = system: ryegrass, Italian (Italian ryegrass, Lolium multiflorum); test: Test A preemergence; details: Lolium multiflorum, pre-emergence, 240 h
In short: as §1

[6] = system: ragweed (common ragweed, Ambrosia elatior); test: Test A preemergence; details: Ambrosia artemisiifolia, pre-emergence, 240 h
In short: as §1

corn (Zea mays) = test: Test A postemergence; details: Zea mays, post-emergence, 240 h, 125 g ai/ha, Postemergence; visual injury after approximately 10 d; 0 to 100 scale where 0 is no effect and 100 is complete control
In short: as §1

[7] = system: barnyardgrass (Echinochloa crus-galli); test: Test A postemergence; details: Echinochloa crus-galli, post-emergence, 240 h, 125 g ai/ha, Postemergence; visual injury after approximately 10 d; 0 to 100 scale where 0 is no effect and 100 is complete control; read-out: Plant response rating, Barnyardgrass
In short: as §1

[8] = system: giant foxtail (Setaria faberii); test: Test A postemergence; details: Setaria faberi, post-emergence, 240 h, 125 g ai/ha, Postemergence; visual injury after approximately 10 d; 0 to 100 scale where 0 is no effect and 100 is complete control; read-out: Plant response rating, Foxtail, Giant
In short: as §1

[9] = system: pigweed (Amaranthus retroflexus); test: Test A postemergence; details: Amaranthus retroflexus, post-emergence, 240 h, 125 g ai/ha, Postemergence; visual injury after approximately 10 d; 0 to 100 scale where 0 is no effect and 100 is complete control; read-out: Plant response rating, Pigweed
In short: as §1

Kochia (Kochia scoparia) [10] = test: Test A postemergence; details: Bassia scoparia, post-emergence, 240 h, 125 g ai/ha, Postemergence; visual injury after approximately 10 d; 0 to 100 scale where 0 is no effect and 100 is complete control; read-out: Plant response rating, Kochia
In short: as §1

[11] = system: ryegrass, Italian (Italian ryegrass, Lolium multiflorum); test: Test A postemergence; details: Lolium multiflorum, post-emergence, 240 h, 125 g ai/ha, Postemergence; visual injury after approximately 10 d; 0 to 100 scale where 0 is no effect and 100 is complete control; read-out: Plant response rating, Ryegrass, Italian
In short: as §1

[12] = system: Galium (catchweed bedstraw, Galium aparine); test: Test A postemergence; details: Galium, post-emergence, 240 h, 125 g ai/ha, Postemergence; visual injury after approximately 10 d; 0 to 100 scale where 0 is no effect and 100 is complete control; read-out: Plant response rating, Galium
In short: as §1

[13] = system: blackgrass (Alopecurus myosuroides); test: Test A postemergence; details: Alopecurus myosuroides, post-emergence, 240 h, 125 g ai/ha, Postemergence; visual injury after approximately 10 d; 0 to 100 scale where 0 is no effect and 100 is complete control; read-out: Plant response rating, Blackgrass
In short: as §1

[14] = system: wheat (Triticum aestivum); test: Test A postemergence; details: Triticum aestivum, post-emergence, 240 h, 125 g ai/ha, Postemergence; visual injury after approximately 10 d; 0 to 100 scale where 0 is no effect and 100 is complete control; read-out: Plant response rating, Wheat
In short: as §1

[15] = system: ragweed (common ragweed, Ambrosia elatior); test: Test A postemergence; details: Ambrosia artemisiifolia, post-emergence, 240 h, 125 g ai/ha, Postemergence; visual injury after approximately 10 d; 0 to 100 scale where 0 is no effect and 100 is complete control; read-out: Plant response rating, Ragweed
In short: as §1

O=C(Nc1cccc(F)c1F)[C@H]1C(=O)N(C2CC2)CC[C@@H]1c1cccc(C(F)(F)F)c1 [Compound 925]
pest or weed control at 125 g/ha ([1]; 125 g ai/ha, preemergence, 0 to 100 scale where 0 is no effect and 100 is complete control, read-out: Barnyardgrass plant response rating): 30% | pest or weed control at 500 g/ha ([1]; 500 g ai/ha, Preemergence, visual injury vs untreated controls after approximately 10 d, read-out: Barnyardgrass plant response rating (0 to 100 scale where 0 is no effect and 100 is complete control)): 90% | pest or weed control at 125 g/ha ([2]; 125 g ai/ha, preemergence, 0 to 100 scale where 0 is no effect and 100 is complete control, read-out: Foxtail, Giant plant response rating): 80% | pest or weed control at 500 g/ha ([2]; 500 g ai/ha, Preemergence, visual injury vs untreated controls after approximately 10 d, read-out: Foxtail, Giant plant response rating (0 to 100 scale where 0 is no effect and 100 is complete control)): 90% | pest or weed control at 125 g/ha ([3]; 125 g ai/ha, preemergence, 0 to 100 scale where 0 is no effect and 100 is complete control, read-out: Pigweed plant response rating): 0% | pest or weed control at 500 g/ha ([3]; 500 g ai/ha, Preemergence, visual injury vs untreated controls after approximately 10 d, read-out: Pigweed plant response rating (0 to 100 scale where 0 is no effect and 100 is complete control)): 0% | pest or weed control at 125 g/ha (Kochia (Kochia scoparia) [4]; 125 g ai/ha, preemergence, 0 to 100 scale where 0 is no effect and 100 is complete control, read-out: Kochia plant response rating): 0% | pest or weed control at 500 g/ha (Kochia (Kochia scoparia) [4]; 500 g ai/ha, Preemergence, visual injury vs untreated controls after approximately 10 d, read-out: Kochia plant response rating (0 to 100 scale where 0 is no effect and 100 is complete control)): 0% | pest or weed control at 125 g/ha ([5]; 125 g ai/ha, preemergence, 0 to 100 scale where 0 is no effect and 100 is complete control, read-out: Ryegrass, Italian plant response rating): 30% | pest or weed control at 500 g/ha ([5]; 500 g ai/ha, Preemergence, visual injury vs untreated controls after approximately 10 d, read-out: Ryegrass, Italian plant response rating (0 to 100 scale where 0 is no effect and 100 is complete control)): 30% | pest or weed control at 125 g/ha ([6]; 125 g ai/ha, preemergence, 0 to 100 scale where 0 is no effect and 100 is complete control, read-out: Ragweed plant response rating): 0% | pest or weed control at 500 g/ha ([6]; 500 g ai/ha, Preemergence, visual injury vs untreated controls after approximately 10 d, read-out: Ragweed plant response rating (0 to 100 scale where 0 is no effect and 100 is complete control)): 0% | Corn plant response rating (crop injury, 0 = no effect, 100 = complete kill) at 125 g/ha (corn (Zea mays)): 0% | pest or weed control at 125 g/ha [7]: 40% | pest or weed control at 125 g/ha [8]: 40% | pest or weed control at 125 g/ha [9]: 0% | pest or weed control at 125 g/ha (Kochia (Kochia scoparia) [10]): 0% | pest or weed control at 125 g/ha [11]: 0% | pest or weed control at 125 g/ha [12]: 0% | pest or weed control at 125 g/ha [13]: 0% | plant injury at 125 g/ha [14]: 0% | pest or weed control at 125 g/ha [15]: 0%
